Results published in ChEMBL document CHEMBL1144214, “Structure-activity relationships of compounds targeting mycobacterium tuberculosis 1-deoxy-D-xylulose 5-phosphate synthase” (Bioorg Med Chem Lett, 2008).
In brackets after ≈: the same amount, converted by molar mass.

Columns and labels:
[1] = molecular target: T1, 1-deoxy-D-xylulose-5-phosphate synthase (Mycobacterium tuberculosis, UniProt P9WNS3); assay: Inhibition of Mycobacterium tuberculosis cloned 1-deoxy-D-xylulose-5-phosphate synthase expressed in Escherichia coli
T1 sequence (P9WNS3 whole entry): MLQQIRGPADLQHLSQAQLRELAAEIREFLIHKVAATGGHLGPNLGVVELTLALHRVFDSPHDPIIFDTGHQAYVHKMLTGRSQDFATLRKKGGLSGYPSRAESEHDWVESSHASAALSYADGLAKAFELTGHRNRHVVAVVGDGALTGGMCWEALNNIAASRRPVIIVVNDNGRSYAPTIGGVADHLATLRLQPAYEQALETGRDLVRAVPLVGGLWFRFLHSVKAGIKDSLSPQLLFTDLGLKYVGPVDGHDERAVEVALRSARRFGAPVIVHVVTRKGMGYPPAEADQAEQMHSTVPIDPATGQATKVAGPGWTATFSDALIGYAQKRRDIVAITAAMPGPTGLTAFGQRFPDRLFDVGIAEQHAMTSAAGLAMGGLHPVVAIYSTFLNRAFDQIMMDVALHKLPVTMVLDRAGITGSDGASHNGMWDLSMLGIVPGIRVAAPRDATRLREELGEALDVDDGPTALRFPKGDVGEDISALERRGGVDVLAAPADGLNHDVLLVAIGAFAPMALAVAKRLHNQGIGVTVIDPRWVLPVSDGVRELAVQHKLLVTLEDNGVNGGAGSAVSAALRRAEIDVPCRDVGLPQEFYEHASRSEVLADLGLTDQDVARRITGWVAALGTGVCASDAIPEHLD

[2] = tested on: Vero; assay: Cytotoxicity against african green monkey Vero cells; format: cell-based; conditions: Chlorocebus sabaeus
[3] = tested on: Mycobacterium tuberculosis; assay: Antituberculosis activity against Mycobacterium tuberculosis; format: functional
[4] = Selectivity index, ratio of IC50 for african green monkey Vero cells to MIC for Mycobacterium tuberculosis; format: functional
[5] = molecular target: T2, Transketolase (Homo sapiens, UniProt P29401); assay: Inhibition of human recombinant transketolase expressed in Escherichia coli
T2 sequence (P29401 whole entry): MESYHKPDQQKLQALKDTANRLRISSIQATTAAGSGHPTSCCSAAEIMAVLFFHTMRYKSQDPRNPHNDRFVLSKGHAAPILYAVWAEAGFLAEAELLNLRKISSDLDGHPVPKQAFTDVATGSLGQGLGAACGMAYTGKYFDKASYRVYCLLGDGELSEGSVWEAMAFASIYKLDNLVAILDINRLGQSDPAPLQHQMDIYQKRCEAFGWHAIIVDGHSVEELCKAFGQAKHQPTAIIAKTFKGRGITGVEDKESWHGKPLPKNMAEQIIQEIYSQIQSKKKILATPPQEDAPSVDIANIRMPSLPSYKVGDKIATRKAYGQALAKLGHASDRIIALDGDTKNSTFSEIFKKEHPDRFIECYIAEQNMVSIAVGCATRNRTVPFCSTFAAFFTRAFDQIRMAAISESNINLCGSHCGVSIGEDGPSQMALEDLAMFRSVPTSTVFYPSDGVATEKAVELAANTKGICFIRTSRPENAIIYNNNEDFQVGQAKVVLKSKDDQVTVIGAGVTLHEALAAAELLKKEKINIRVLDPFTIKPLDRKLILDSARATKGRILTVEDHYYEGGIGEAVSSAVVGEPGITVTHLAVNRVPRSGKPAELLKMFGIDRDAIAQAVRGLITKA

Row | SMILES | IC50 [1] | also measured
1 | Oc1cc(-c2ccccc2)nc2c(-c3ccccc3)c(C(F)(F)F)nn12 | 23 µM | –
2 | COc1ccc(-c2c(C(F)(F)F)nn3c(O)cc(-c4ccccc4)nc23)cc1 | 20.2 µM | –
3 | CCOC(=O)Cc1c(C)nc2c(-c3ccccc3)cnn2c1O | > 200 µM | –
4 | Brc1cccc(-c2cnn3c(-c4ccccc4)cc(-c4ccccc4)nc23)c1 | > 200 µM | –
5 | Cc1nn2c(=O)cc(CSc3ccc(Cl)cc3)[nH]c2c1-c1ccccc1 | 63.7 µM | –
6 | Cc1nn2c(=O)cc(-c3ccccc3)[nH]c2c1-c1ccc(Cl)cc1 | 34.2 µM | IC50 [2]: 39.5 µM; MIC [3]: 14.2 µM (≈ 4.77 µg/mL); Selectivity Index [4]: 4.6
7 | COCc1cc(=O)n2nc(C)c(-c3ccc(Cl)cc3)c2[nH]1 | > 200 µM | –
8 | Cc1nn2c(=O)cc(CSc3nnnn3-c3ccccc3)[nH]c2c1-c1ccc(Cl)cc1 | 55.1 µM | –
9 | O=c1cc(Cc2ccccc2)[nH]c2c(-c3ccccc3)c(C(F)(F)F)nn12 | 71.1 µM | –
10 | COCc1cc(=O)n2ncc(-c3ccc(Cl)cc3)c2[nH]1 | > 200 µM | –
11 | Cc1cc(=O)n2ncc(-c3ccc(Cl)cc3)c2[nH]1 | > 200 µM | –
12 | COc1ccc(-c2cc(=O)n3nc(C)c(-c4ccc(F)cc4)c3[nH]2)cc1 | 10.6 µM | IC50 [2]: 35.6 µM; MIC [3]: 7.7 µM (≈ 2.69 µg/mL)
13 | Cc1nn2c(=O)cc(-c3ccccc3)[nH]c2c1-c1ccccc1 | 30.6 µM | –
14 | Cc1nn2c(=O)cc(-c3ccc4ccccc4c3)[nH]c2c1-c1ccccc1 | 19.5 µM | –
15 | O=c1cc(CCl)[nH]c2c(-c3ccccc3)cnn12 | > 200 µM | –
16 | COC(=O)Cc1cc(=O)n2nc(C(F)(F)F)c(-c3ccc(Br)cc3)c2[nH]1 | 73 µM | –
17 | Cc1cc(=O)n2nc(C(F)(F)F)c(-c3ccc(Cl)cc3)c2[nH]1 | 98.4 µM | –
18 | COc1ccc(-c2cc(=O)n3nc(C)c(-c4ccc(Cl)cc4)c3[nH]2)cc1 | 10.9 µM | IC50 [2]: 16 µM; MIC [3]: 7.6 µM (≈ 2.78 µg/mL)
19 | O=c1cc(Cc2ccccc2)[nH]c2c(-c3ccc(Cl)cc3)cnn12 | 114 µM | IC50 [5]: 3.9 µM
20 | COc1ccc(-c2cc(=O)n3nc(C)c(-c4ccc(OC)cc4)c3[nH]2)cc1 | 42.4 µM | IC50 [2]: 80.9 µM; MIC [3]: 61.8 µM (≈ 22.3 µg/mL); Selectivity Index [4]: 2.1
21 | CCc1nn2c(=O)cc(-c3ccc(OC)cc3)[nH]c2c1-c1ccc(Cl)cc1 | 19.7 µM | –
22 | FC(F)(F)c1cc(-c2ccc(Cl)cc2)nc2c(-c3ccc(Cl)cc3)cnn12 | > 200 µM | –
23 | O=c1cc(Cc2ccccc2)[nH]c2c(-c3ccc(Cl)cc3)c(C(F)(F)F)nn12 | 14 µM | –
24 | Cc1nn2c(=O)cc(CSc3ccc(Cl)cc3)[nH]c2c1-c1ccc(Cl)cc1 | 41.4 µM | –
25 | COc1ccccc1-c1cc(=O)n2nc(C)c(-c3ccc(Br)cc3)c2[nH]1 | 53.5 µM | –
26 | COc1ccc(-c2c(C)nn3c(=O)cc(-c4ccccc4)[nH]c23)cc1 | 90.7 µM | –
27 | Cc1[nH]c2c(-c3ccc(Cl)cc3)c(C(F)(F)F)nn2c(=O)c1Cc1ccccc1 | > 200 µM | –
28 | Cc1cc(=O)n2nc(C(F)(F)F)c(-c3ccc(Br)cc3)c2[nH]1 | > 200 µM | –
